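Exposure lasted 48 hours, with cells grown in 96-well plates and compounds tested at five concentrations. Here, GI50 denotes the concentration required for 50% inhibition of growth.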 Active and inactive are the calls of the source. No stated cut-off is given here; in the data, active = GI50 up to about 1.1 µM and inactive = higher.
What was measured:
Experiment in all cases: NCI tumour cell line growth inhibition, 48 h
[1] = tested on: HCT-116
[2] = tested on: SF-295
[3] = tested on: HCT-15
[4] = tested on: EKVX
[5] = tested on: SK-OV-3
[6] = tested on: CCRF-CEM
[7] = tested on: SW-620
[8] = tested on: HOP-92
[9] = tested on: NCI-H522
[10] = tested on: MDA-MB-435
[11] = tested on: IGROV-1
[12] = tested on: MDA-N
[13] = tested on: Hs-578T
[14] = tested on: MDA-MB-231
[15] = tested on: A549
[16] = tested on: MOLT-4
[17] = tested on: HT-29
[18] = tested on: T47D
[19] = tested on: DU-145
[20] = tested on: Malme-3M
[21] = tested on: NCI-H23
[22] = tested on: MCF7
[23] = tested on: SN12C
[24] = tested on: K562
[25] = tested on: SNB-75
[26] = tested on: UO-31
[27] = tested on: OVCAR-8
[28] = tested on: M14
[29] = tested on: BT-549
[30] = tested on: SF-539
[31] = tested on: RPMI-8226
[32] = tested on: NCI-H460
[33] = tested on: PC-3
[34] = tested on: SK-MEL-5
[35] = tested on: HL-60
[36] = tested on: COLO 205
[37] = tested on: SF-268
[38] = tested on: UACC-257
[39] = tested on: A498
[40] = tested on: NCI/ADR-RES
[41] = tested on: UACC-62
[42] = tested on: HOP-62
[43] = tested on: KM12
[44] = tested on: SNB-19
[45] = tested on: RXF 393
[46] = tested on: TK-10
[47] = tested on: LOX IMVI
[48] = tested on: U-251
[49] = tested on: SR
[50] = tested on: NCI-H226
[51] = tested on: ACHN
[52] = tested on: SK-MEL-28
[53] = tested on: OVCAR-4
[54] = tested on: OVCAR-5
[55] = tested on: 786-0
[56] = tested on: OVCAR-3
[57] = tested on: HCC 2998
[58] = tested on: SK-MEL-2
[59] = tested on: CAKI-1

## Cc1ccc(S(=O)(=O)N2CCC[C@@H]2C(=O)O[C@@H]2CCC3CC=CC32)cc1 (stereo partly drawn)
[1]
  GI50: 30.4 µM (inactive)
[2]
  GI50: 36.8 µM (inactive)
[3]
  GI50: 32.7 µM
[4]
  GI50: 41.6 µM (inactive)
[5]
  GI50: 22.2 µM (inactive)
[6]
  GI50: 24.8 µM (inactive)
[7]
  GI50: 40.3 µM (inactive)
[8]
  GI50: 15.3 µM (inactive)
[9]
  GI50: 18.9 µM (inactive)
[10]
  GI50: 35.1 µM (inactive)
[11]
  GI50: 39.9 µM (inactive)
[12]
  GI50: 29.2 µM (inactive)
[13]
  GI50: 33.3 µM (inactive)
[14]
  GI50: 45.9 µM (inactive)
[15]
  GI50: 34.5 µM (inactive)
[16]
  GI50: 17.6 µM (inactive)
[17]
  GI50: 24 µM (inactive)
[18]
  GI50: 20.9 µM (inactive)
[19]
  GI50: 45.6 µM (inactive)
[20]
  GI50: 24.5 µM (inactive)
[21]
  GI50: 35.1 µM (inactive)
[22]
  GI50: 33.9 µM (inactive)
[23]
  GI50: 28.1 µM (inactive)
[24]
  GI50: 14 µM (inactive)
[25]
  GI50: 26.1 µM (inactive)
[26]
  GI50: 13.6 µM (inactive)
[27]
  GI50: 34.4 µM (inactive)
[28]
  GI50: 34.6 µM (inactive)
[29]
  GI50: 18.9 µM (inactive)
[30]
  GI50: 44.5 µM (inactive)
[31]
  GI50: 18.7 µM (inactive)
[32]
  GI50: 35.6 µM (inactive)
[33]
  GI50: 21.4 µM (inactive)
[34]
  GI50: 14.8 µM (inactive)
[35]
  GI50: 11.5 µM (inactive)
[36]
  GI50: 16.6 µM (inactive)
[37]
  GI50: 15.1 µM (inactive)
[38]
  GI50: 22.2 µM (inactive)
[39]
  GI50: 24.8 µM (inactive)
[40]
  GI50: 19.3 µM (inactive)
[41]
  GI50: 27.9 µM (inactive)
[42]
  GI50: 29.9 µM (inactive)
[43]
  GI50: 28.3 µM (inactive)
[44]
  GI50: 34.4 µM (inactive)
[45]
  GI50: 20 µM (inactive)
[46]
  GI50: 42.5 µM (inactive)
[47]
  GI50: 16.1 µM (inactive)
[48]
  GI50: 34.3 µM (inactive)
[49]
  GI50: 11.6 µM (inactive)
[50]
  GI50: 19.9 µM (inactive)
[51]
  GI50: 38.5 µM (inactive)
[52]
  GI50: 47.9 µM (inactive)
[53]
  GI50: 47 µM (inactive)
[54]
  GI50: 45.8 µM (inactive)
[55]
  GI50: 19.9 µM (inactive)
[56]
  GI50: 12.1 µM (inactive)
[57]
  GI50: 31.5 µM (inactive)

## COc1ccc(-c2cc(-c3cc(OC)c(OC)c(OC)c3)cc(-c3cc4ccccc4oc3=O)n2)cc1
[1]
  GI50: 4.48 µM (inactive)
[2]
  GI50: 4.99 µM (inactive)
[3]
  GI50: 30.9 µM
[4]
  GI50: 10.9 µM (inactive)
[5]
  GI50: 3.83 µM (inactive)
[6]
  GI50: > 100 µM (inactive)
[7]
  GI50: 25.2 µM (inactive)
[8]
  GI50: 4.07 µM (inactive)
[9]
  GI50: 6.85 µM (inactive)
[10]
  GI50: 16.7 µM (inactive)
[11]
  GI50: 7.06 µM (inactive)
[12]
  GI50: 11.6 µM (inactive)
[13]
  GI50: 2.38 µM (inactive)
[14]
  GI50: 2.3 µM (inactive)
[15]
  GI50: 15 µM (inactive)
[16]
  GI50: > 100 µM (inactive)
[17]
  GI50: 9.4 µM (inactive)
[58]
  GI50: 20 µM (inactive)
[18]
  GI50: 7.19 µM (inactive)
[19]
  GI50: 9.53 µM (inactive)
[20]
  GI50: 5.77 µM (inactive)
[21]
  GI50: 7.87 µM (inactive)
[22]
  GI50: 16.7 µM (inactive)
[23]
  GI50: 8.93 µM (inactive)
[24]
  GI50: 30.1 µM (inactive)
[25]
  GI50: 2.51 µM (inactive)
[26]
  GI50: 8.28 µM (inactive)
[27]
  GI50: 4.38 µM (inactive)
[28]
  GI50: 16.6 µM (inactive)
[29]
  GI50: 8.79 µM (inactive)
[30]
  GI50: 2.76 µM (inactive)
[32]
  GI50: 5.78 µM (inactive)
[33]
  GI50: 19.6 µM (inactive)
[34]
  GI50: 5.97 µM (inactive)
[35]
  GI50: > 100 µM (inactive)
[36]
  GI50: > 100 µM (inactive)
[37]
  GI50: 3.45 µM (inactive)
[38]
  GI50: 16.7 µM (inactive)
[39]
  GI50: 5.65 µM (inactive)
[40]
  GI50: 7.18 µM (inactive)
[41]
  GI50: 12.5 µM (inactive)
[42]
  GI50: 2.25 µM (inactive)
[43]
  GI50: 12.6 µM (inactive)
[44]
  GI50: 10.2 µM (inactive)
[45]
  GI50: 3.24 µM (inactive)
[46]
  GI50: 8.18 µM (inactive)
[47]
  GI50: 12.7 µM (inactive)
[59]
  GI50: 4.86 µM (inactive)
[48]
  GI50: 3.54 µM (inactive)
[49]
  GI50: 9.79 µM (inactive)
[50]
  GI50: 3.95 µM (inactive)
[51]
  GI50: 4.13 µM (inactive)
[53]
  GI50: 3.94 µM (inactive)
[55]
  GI50: 2.16 µM (inactive)
[56]
  GI50: 17 µM (inactive)
[57]
  GI50: 17.3 µM (inactive)
